According to US9040530B2, “1,2,4-triazine-6-carboxamide kinase inhibitors” (Portola Pharmaceuticals, Inc., priority 2012, dated 2015):

Biological target: T1, full length active recombinant SYK enzyme (Homo sapiens, UniProt P43405)
T1 construct: full length active recombinant SYK enzyme (Millipore, Calif.); purchased Millipore
Assay: Inhibition of Syk tyrosine phosphorylation activity (LANCE TR-FRET kinase assay)
Format: biochemical
Details: 1 nM active SYK enzyme, 550 nM SYK-substrate, 100 μM ATP, 1 hour at room temperature
Protocol: The in vitro and in vivo human Syk activities of the inventive compounds can be determined by various procedures known in the art, such as a test for their ability to inhibit the activity of human plasma Syk.
Inhibition of Syk Tyrosine Phosphorylation Activity
SYK tyrosine phosphorylation activity is measured using the LANCE™ Technology developed by Perkin Elmer Life and Analytical Sciences (Boston, Mass.). LANCE™ refers to homogeneous time resolved fluorometry applications using techniques such as time-resolved fluorescence resonance energy transfer assay (TR-FRET) (see generally for procedures in Perkin Elmer Application Note—How to Optimize a Tyrosine Kinase Assay Using Time Resolved Fluorescence-Based LANCE Detection, wwww.perkinelmer.com/lifesciences). The assay principle involves detection of a phosphorylated substrate using energy transfer from a phosphospecific europium-labeled antibody to streptavidin-allophycocyanin as an acceptor.
Molecules are reconstituted in 30% DMSO and serially diluted 1:3 with the final dilution containing DMSO in the absence of the candidate molecule. The final DMSO concentration in the assay is 3%. Kinase assays are performed as a two part reaction. […] The second reaction involves termination of the kinase reaction and the simultaneous addition of the detection reagents-europium-labeled anti-phosphotyrosine reagent (Eu-W1024-PY100, Perkin Elmer, Boston, Mass.) and Streptavidin-Allophycocyanin detection reagent (SA-APC, Prozyme, CA). The kinase reaction is performed in a black U-bottom 96-well microtitre plate. […] The reaction is allowed to proceed for 1 hour at room temperature. The quench buffer contains 100 mM Tris pH 7.5, 300 mM […], 20 mM EDTA, 0.02% Brij35, and 0.5% BSA. The detection reagents are added to the reaction mixture at the following dilutions-1:500 for Eu-W1024-PY100 and 1:250 for SA-APC. The kinase reaction is terminated by the addition of 50 μL quench buffer containing the detection reagents. The detection is allowed to proceed for 1 hr at room temperature. Detection of the phosphorlated substrate in the absence and presence of inhibitors is measured in the TR-FRET instrument, Analyst HT (Molecular Probes, Sunnyvale, Calif.) and the condition for measurements are set up using CriterionHost Release 2.0 (Molecular Probes, Sunnyvale, Calif.). […] IC50s were derived by non-linear regression analysis.

Row | SMILES | IC50
1 | Cn1ccc2c(Nc3nc(N[C@@H]4CCOC[C@@H]4N)nnc3C(N)=O)cccc21 [Example 82, 3-(((3R,4R)-3-aminotetrahydro-2H-pyran-4-yl)amino)-5-((1-methyl-1H-indol-4-yl)amino)-1,2,4-triazine-6-carboxamide] | 1 to 10 nM
2 | NC(=O)c1nnc(N[C@@H]2CCCC[C@@H]2N)nc1Nc1ccc(F)c(Cl)c1 [Example 24, 3-(((1R,2S)-2-aminocyclohexyl)amino)-5-((3-chloro-4-fluorophenyl)amino)-1,2,4-triazine-6-carboxamide] | 1 to 10 nM
3 | N#Cc1ccc(Nc2nc(N[C@@H]3CCCC[C@@H]3N)nnc2C(N)=O)cc1 [Example 75, 3-(((1R,2S)-2-aminocyclohexyl)amino)-5-((4-cyanophenyl)amino)-1,2,4-triazine-6-carboxamide] | 10 to 100 nM
4 | NC(=O)c1nnc(N[C@@H]2CCCC[C@@H]2N)nc1Nc1cccc(-c2ncccn2)c1 [Example 1, 3-((1R,2S)-2-aminocyclohexylamino)-5-(3-(pyrimidin-2-yl)phenylamino)-1,2,4-triazine-6-carboxamide] | 1 to 10 nM
5 | NC(=O)c1nnc(N[C@@H]2CCCC[C@@H]2N)nc1Nc1cnn2ccccc12 [Example 35, 3-(((1R,2S)-2-aminocyclohexyl)amino)-5-(pyrazolo[1,5-a]pyridin-3-ylamino)-1,2,4-triazine-6-carboxamide] | 1 to 10 nM
6 | NC(=O)c1nnc(N[C@@H]2CCCC[C@@H]2N)nc1Nc1csc2ncccc12 [Example 37, 3-(((1R,2S)-2-aminocyclohexyl)amino)-5-(thieno[2,3-b]pyridin-3-ylamino)-1,2,4-triazine-6-carboxamide] | 1 to 10 nM
7 | Cn1ccc2cc(Nc3nc(N[C@@H]4CCCC[C@@H]4N)nnc3C(N)=O)ccc21 [Example 118, 3-(((1R,2S)-2-aminocyclohexyl)amino)-5-((1-methyl-1H-indol-5-yl)amino)-1,2,4-triazine-6-carboxamide] | 1 to 10 nM
8 | N#Cc1cccc(Nc2nc(N[C@@H]3CCCC[C@@H]3N)nnc2C(N)=O)c1 [Example 72, 3-(((1R,2S)-2-aminocyclohexyl)amino)-5-((3-cyanophenyl)amino)-1,2,4-triazine-6-carboxamide] | 1 to 10 nM
9 | Cc1ccc(Nc2nc(N[C@@H]3CCOC[C@@H]3N)nnc2C(N)=O)cc1C [Example 145, 3-(((3R,4R)-3-aminotetrahydro-2H-pyran-4-yl)amino)-5-((3,4-dimethylphenyl)amino)-1,2,4-triazine-6-carboxamide] | 1 to 10 nM
10 | Cn1ccc2c(Nc3nc(NCc4cc[nH]n4)nnc3C(N)=O)cccc21 [Example 91, 3-(((1H-pyrazol-3-yl)methyl)amino)-5-((1-methyl-1H-indol-4-yl)amino)-1,2,4-triazine-6-carboxamide] | 100 to 1000 nM
11 | CC[C@@H](Nc1nnc(C(N)=O)c(Nc2cnc3ccc(F)cc3c2)n1)C(N)=O [Example 123, (R)-3-((1-amino-1-oxobutan-2-yl)amino)-5-((6-fluoroquinolin-3-yl)amino)-1,2,4-triazine-6-carboxamide] | 10 to 100 nM
12 | Cn1cc(Nc2nc(N[C@@H]3CCOC[C@@H]3N)nnc2C(N)=O)cn1 [Example 79, 3-(((3R,4R)-3-aminotetrahydro-2H-pyran-4-yl)amino)-5-((1-methyl-1H-pyrazol-4-yl)amino)-1,2,4-triazine-6-carboxamide] | 100 to 1000 nM
13 | CC[C@@H](Nc1nnc(C(N)=O)c(Nc2ccc3c(cnn3C)c2)n1)C(N)=O [Example 110, (R)-3-((1-amino-1-oxobutan-2-yl)amino)-5-((1-methyl-1H-indazol-5-yl)amino)-1,2,4-triazine-6-carboxamide] | 10 to 100 nM
14 | CC(C)C[C@@H](Nc1nnc(C(N)=O)c(Nc2cccc(-c3ncccn3)c2)n1)C(N)=O [Example 77, (R)-3-((1-amino-4-methyl-1-oxopentan-2-yl)amino)-5-((3-(pyrimidin-2-yl)phenyl)amino)-1,2,4-triazine-6-carboxamide] | 10 to 100 nM
15 | NC(=O)c1nnc(N[C@@H]2CCCC[C@@H]2N)nc1Nc1cccc2ncccc12 [Example 46, 3-(((1R,2S)-2-aminocyclohexyl)amino)-5-(quinolin-5-ylamino)-1,2,4-triazine-6-carboxamide] | 1 to 10 nM
16 | CC[C@@H](Nc1nnc(C(N)=O)c(Nc2cnc3cccnc3c2)n1)C(N)=O [Example 146, (R)-5-((1,5-naphthyridin-3-yl)amino)-3-((1-amino-1-oxobutan-2-yl)amino)-1,2,4-triazine-6-carboxamide] | 100 to 1000 nM
17 | COc1ccc(Nc2nc(N[C@@H]3CCCC[C@@H]3N)nnc2C(N)=O)cc1Cl [Example 125, 3-(((1R,2S)-2-aminocyclohexyl)amino)-5-((3-chloro-4-methoxyphenyl)amino)-1,2,4-triazine-6-carboxamide] | 1 to 10 nM
18 | Cc1cc(F)cc(Nc2nc(N[C@@H]3CCCC[C@@H]3N)nnc2C(N)=O)c1 [Example 22, 3-(((1R,2S)-2-aminocyclohexyl)amino)-5-((3-fluoro-5-methylphenyl)amino)-1,2,4-triazine-6-carboxamide] | 1 to 10 nM
19 | CC(C)[C@@H](Nc1nnc(C(N)=O)c(Nc2cccc3c2ccn3C)n1)C(N)=O [Example 87, (R)-3-((1-amino-3-methyl-1-oxobutan-2-yl)amino)-5-((1-methyl-1H-indol-4-yl)amino)-1,2,4-triazine-6-carboxamide] | 10 to 100 nM
20 | Cc1cc(Nc2nc(N[C@@H]3CCOC[C@@H]3N)nnc2C(N)=O)sn1 [Example 142, 3-(((3R,4R)-3-aminotetrahydro-2H-pyran-4-yl)amino)-5-((3-methylisothiazol-5-yl)amino)-1,2,4-triazine-6-carboxamide] | 10 to 100 nM

Further lines, results first:

Row | IC50 | SMILES
21 | 100 to 1000 nM | CC[C@@H](Nc1nnc(C(N)=O)c(Nc2cccc(C(F)(F)F)c2)n1)C(N)=O [Example 171, (R)-3-((1-amino-1-oxobutan-2-yl)amino)-5-((3-(trifluoromethyl)phenyl)amino)-1,2,4-triazine-6-carboxamide]
22 | 10 to 100 nM | CC[C@@H](Nc1nnc(C(N)=O)c(Nc2ccc(N(C)C)c(F)c2)n1)C(N)=O [Example 162, (R)-3-((1-amino-1-oxobutan-2-yl)amino)-5-((4-(dimethylamino)-3-fluorophenyl)amino)-1,2,4-triazine-6-carboxamide]
23 | 10 to 100 nM | CC[C@@H](Nc1nnc(C(N)=O)c(Nc2ccc3c(c2)CCOC3)n1)C(N)=O [Example 212, (R)-3-((1-amino-1-oxobutan-2-yl)amino)-5-(isochroman-6-ylamino)-1,2,4-triazine-6-carboxamide]
24 | 10 to 100 nM | COc1cc(Nc2nc(N[C@H](CC(C)C)C(N)=O)nnc2C(N)=O)ccn1 [Example 186, (R)-3-(1-amino-4-methyl-1-oxopentan-2-ylamino)-5-(2-methoxypyridin-4-ylamino)-1,2,4-triazine-6-carboxamide]
25 | 1 to 10 nM | CN(C)c1ccc(Nc2nc(N[C@@H]3CCCC[C@@H]3N)nnc2C(N)=O)cc1Cl [Example 175, 3-(((1R,2S)-2-aminocyclohexyl)amino)-5-((3-chloro-4-(dimethylamino)phenyl)amino)-1,2,4-triazine-6-carboxamide]
26 | 10 to 100 nM | CC[C@@H](Nc1nnc(C(N)=O)c(Nc2cnc3c(ccn3C)c2)n1)C(N)=O [Example 152, (R)-3-((1-amino-1-oxobutan-2-yl)amino)-5-((1-methyl-1H-pyrrolo[2,3-b]pyridin-5-yl)amino)-1,2,4-triazine-6-carboxamide]
27 | 10 to 100 nM | CC[C@@H](Nc1nnc(C(N)=O)c(Nc2ccc(Cl)c(OC)c2)n1)C(N)=O [Example 232, (R)-3-((1-amino-1-oxobutan-2-yl)amino)-5-((4-chloro-3-methoxyphenyl)amino)-1,2,4-triazine-6-carboxamide]
28 | 1 to 10 nM | CC[C@@H](Nc1nnc(C(N)=O)c(Nc2ccc3cnn(C)c3c2)n1)C(N)=O [Example 180, (R)-3-((1-amino-1-oxobutan-2-yl)amino)-5-((1-methyl-1H-indazol-6-yl)amino)-1,2,4-triazine-6-carboxamide]
29 | 10 to 100 nM | Cc1ccc(Nc2nc(N[C@@H]3CCCC(F)(F)[C@@H]3N)nnc2C(N)=O)cc1C [Example 204, 3-(((1R,2R)-2-amino-3,3-difluorocyclohexyl)amino)-5-((3,4-dimethylphenyl)amino)-1,2,4-triazine-6-carboxamide]
30 | 10 to 100 nM | CC[C@@H](Nc1nnc(C(N)=O)c(Nc2ccc(Cl)c(C)c2)n1)C(N)=O [Example 221, (R)-3-((1-amino-1-oxobutan-2-yl)amino)-5-((4-chloro-3-methylphenyl)amino)-1,2,4-triazine-6-carboxamide]
